Test results taken from patent US20220280594A1, “APPLICATION OF POLYPEPTIDE OR DERIVATIVE THEREOF” (CHENGDU HUITAI BIOMEDICINE CO., LTD., priority 2019, published 2022).
Ends that are not written are not given here. PEG = not defined here

Legend:
[1] = test system: human non-small cell lung cancer cells (A549); assay: scratch assay, migration of A549 cells; type: cell-based; details: A549, 10 μM, 48 hours; control group 75.31 ± 8.19
Outline: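 Confluent A549 monolayers in 24-well plates were scratched, washed with PBS, then cultured 48 h in 2% FBS medium with peptide at 10 μM or PBS control, triplicate wells. Scratch width measured from images; migration rate (%) = (original − current width)/original width × 100.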

[2] = test system: human pancreatic cancer cells (PANC-1); assay: scratch assay, migration of PANC-1 cells; type: cell-based; details: PANC-1, 10 μM, 48 hours; control group 66.65 ± 3.37
Outline: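 PANC-1 monolayers were scratched, then cultured for 48 h with 10 μM test compound in 2% FBS medium, in three parallel wells per group against a PBS control. Migration rate (%) was calculated as (original minus current scratch width) / original width × 100, from imaged wells.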

[3] = test system: human breast cancer cells (MDA-MB-231); assay: scratch assay, migration of MDA-MB-231 cells; type: cell-based; details: MDA-MB-231, 10 μM, 48 hours; control group 36.19 ± 5.15
Outline: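 MDA-MB-231 monolayers (1-2×10^5 cells/well) were scratched, then kept 48 h in medium with 2% FBS containing polypeptide at 10 μM, with a PBS control, in triplicate wells. Migration rate (%) was taken from scratch width: (original − current)/original ×100.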

[4] = test system: human pancreatic cancer cells (PANC-1); assay: transwell invasion assay, PANC-1 cells; type: cell-based; details: PANC-1 transwell invasion, 10 μM, 24 hours; control group 727 ± 68
Outline: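 Serum-free PANC-1 cells were seeded in matrigel-coated upper chambers with complete medium below. After 4-5 hours at 37° C., peptide was added at 10 μM final. Following 24 hours, invaded cells on the lower membrane surface were fixed, crystal violet-stained, imaged and counted against untreated controls.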

[5] = test system: human lung cancer cells (95D); assay: scratch assay, migration of 95D cells; type: cell-based; details: 10 μM, 48 hours, control group 55.3 ± 3.19
Outline: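 Confluent 95D monolayers were scratched, washed with PBS and cultured 48 h in 2% FBS medium containing peptide (10 μM) or PBS control, in triplicate wells. Scratch width was measured on images; migration rate (%) = (original width − current width)/original width × 100.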

[6] = test system: human lung cancer cells (A549) subcutaneous xenograft; assay: lung cancer subcutaneous xenograft animal model, intravenous injection; type: in vivo, mice (BALB/c-nu/nu); details: intravenous 60 mg/kg once every other day, 20 days; for Weight of tumor (g) (mean ± SD): control 2.53 ± 0.17; for Volume of tumor (mm^3) (mean ± SD): control 3373.26 ± 581.44
Outline: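 Female BALB/c-nu/nu mice (4-6 weeks) inoculated subcutaneously with ~2×10^6 A549 cells; grouped once tumours exceeded 100 mm^3. Peptides given intravenously at 60 mg/kg for 20 days versus model control. Tumour weight and volume measured at dissection; body weight recorded every other day.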

[7] = test system: human colon cancer cells (HCT-116); assay: scratch assay, migration of HCT-116 cells; type: cell-based; details: HCT-116, 10 μM, 48 hours; control group 47.78 ± 6.07
Outline: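 Confluent HCT-116 monolayers were scratched, washed and cultured 48 h in 2% FBS medium with peptide at 10 μM versus PBS control, triplicate wells. Migration rate (%) = (original minus current scratch width)/original width × 100, from at least 3 images per well.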

[8] = test system: human melanoma cells (A375); assay: scratch assay, migration of A375 cells; type: cell-based; details: A375, 10 μM, 48 hours; control group 44.03 ± 6.21
Outline: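 Monolayers scratched, washed with PBS and cultured 48 hours in 2% FBS medium with polypeptides N1-N54 at 10 μM or PBS control, three wells per group. Migration rate (%) = (original − current scratch width)/original width×100, from imaged scratch widths.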

[9] = test system: human thyroid cancer cells (FRO); assay: scratch assay, migration of FRO cells; type: cell-based; details: 10 μM, 48 hours, control group 60.34 ± 8.32
Outline: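 FRO monolayers were scratched, washed, and cultured 48 h in 2% FBS medium with polypeptide derivatives at 10 μM or PBS control, three wells per group. Migration rate (%) = (original − current scratch width)/original width × 100, measured from images.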

Row | Substance | Migration rate (%) (mean ± SD, P) [1] | Migration rate (%) (mean ± SD, P) [2] | Migration rate (%) (mean ± SD, P) [3] | Number of cells (mean ± SD, P), invaded cells [4] | Migration rate (%) (mean ± SD, P) [5] | Weight of tumor (g) (mean ± SD) [6] | Volume of tumor (mm^3) (mean ± SD) [6] | Migration rate (%) (mean ± SD, P) [7] | Migration rate (%) (mean ± SD, P) [8] | Migration rate (%) (mean ± SD, P) [9]
1 | N25: SEQ ID NO: 1 with substitution N18R and addition of two amino acids at the carboxyl terminal (YRVRFLAKENVTQDAEDRCT) | 34.66 ± 7.73,** % | 25.36 ± 7.32,*** % | 12.93 ± 4.38,** % | 247 ± 17,**** | 40.70 ± 3.25,** % | 0.69 ± 0.21 | 1169.92 ± 572.47 | 18.70 ± 2.39,** % | 17.67 ± 2.41,** % | 14.31 ± 2.47,*** %
2 | N26: SEQ ID NO: 1 with substitution A15R, addition of one amino acid at the amino terminal and one at the carboxyl terminal (FYRVRFLAKENVTQDREDNC) | 25.04 ± 6.01,** % | 26.65 ± 6.37,*** % | 19.02 ± 5.06,* % | 231 ± 18,**** | 37.20 ± 5.94,** % | 0.57 ± 0.22 | 1163.91 ± 457.09 | 9.81 ± 2.92,*** % | 12.23 ± 2.48,*** % | 11.21 ± 4.01,*** %
3 | N27: SEQ ID NO: 1 with addition of one amino acid at the carboxyl terminal and PEG modification at the carboxyl terminal (YRVRFLAKENVTQDAEDNC-{PEG}; reading uncertain) | 37.20 ± 6.23,** % | 27.19 ± 7.04,*** % | 9.62 ± 3.01,*** % | 242 ± 35,**** | 37.20 ± 6.23,* % | 1.14 ± 0.23 | 1402.37 ± 405.66 | 24.14 ± 3.00,** % | 12.52 ± 3.78,*** % | 13.42 ± 3.35,*** %
4 | N28: SEQ ID NO: 1 with deletion of positions 1-2 and 18 and PEG modification at the amino terminal ({PEG}-VRFLAKENVTQDAED; reading uncertain) | 17.20 ± 6.23,*** % | 32.25 ± 5.40,** % | 9.36 ± 1.8,** % | 247 ± 15,**** | 28.08 ± 3.38,*** % | 0.91 ± 0.21 | 1286.52 ± 344.21 | 9.19 ± 3.22,*** % | 10.80 ± 2.66,*** % | 8.77 ± 2.85,*** %
5 | N29: SEQ ID NO: 1 with deletion of positions 1-5 and 15-18 and PEG modification at the amino terminal ({PEG}-LAKENVTQD; reading uncertain) | 20.55 ± 3.73,*** % | 40.62 ± 4.97,* % | 18 ± 4.47,* % | 213 ± 17,**** | 30.30 ± 4.81,** % | 1 ± 0.17 | 1365.48 ± 435.32 | 8.24 ± 2.32,*** % | 14.01 ± 4.22,*** % | 5.12 ± 2.67,*** %
6 | N30: SEQ ID NO: 1 with deletion of positions 1-5 and 15-18 and PEG modification at the carboxyl terminal (LAKENVTQD-{PEG}; reading uncertain) | 24.57 ± 3.19,*** % | 16.60 ± 5.85,*** % | 9.02 ± 2.02,*** % | 237 ± 15,**** | 33.91 ± 3.36,** % | 1.01 ± 0.34 | 1187.13 ± 246.31 | 12.41 ± 2.99,*** % | 6.96 ± 2.18,*** % | 5.16 ± 1.67,*** %
7 | N31: SEQ ID NO: 1 with deletion of positions 3, 4, 11 and 15-18 and PEG modification at the carboxyl terminal (YRFLAKENTQD-{PEG}; reading uncertain) | 24.44 ± 8.15,** % | 13.64 ± 7.59,*** % | 18.7 ± 3.05,* % | 365 ± 57,*** | 25.70 ± 3.17,** % | 0.62 ± 0.2 | 1439.74 ± 546.27 | 7.39 ± 2.06,*** % | 12.5 ± 2.29,*** % | 9.77 ± 1.96,*** %
8 | N32: SEQ ID NO: 1 with deletion of positions 1-3, addition of one amino acid and PEG modification at the carboxyl terminal (RFLAKENVTQDAEDNC-{PEG}; reading uncertain) | 28.06 ± 8.55,** % | 15.49 ± 8.35,*** % | 13.33 ± 3.83,** % | 251 ± 10,**** | 29.47 ± 3.42,** % | 0.88 ± 0.38 | 1630.6 ± 424.84 | 8.17 ± 1.07,*** % | 18.22 ± 3.95,** % | 7.83 ± 2.06,*** %
9 | N33: SEQ ID NO: 1 with deletion of positions 1-5, addition of one amino acid and PEG modification at the carboxyl terminal (LAKENVTQDAEDNC-{PEG}; reading uncertain) | 33.22 ± 4.51,** % | 39.27 ± 3.14,* % | 22.68 ± 3.02,* % | 345 ± 27,*** | 30.73 ± 5.87,** % | 0.57 ± 0.24 | 1699.23 ± 709.14 | 12.85 ± 3.12,*** % | 9.98 ± 3.11,*** % | 7.03 ± 2.02,*** %
10 | N34: SEQ ID NO: 1 with A15R, addition of one amino acid at the carboxyl terminal, PEG modification at the amino terminal ({PEG}-YRVRFLAKENVTQDREDNC; reading uncertain) | 30.51 ± 8.12,** % | 28.58 ± 3.87,*** % | 17.34 ± 4.82,* % | 346 ± 30,*** | 13.53 ± 4.35,*** % | 1.06 ± 0.15 | 1472.21 ± 914.38 | 17.96 ± 3.84,** % | 15.11 ± 2.01,*** % | 8.74 ± 3.40,*** %
